The test system of data set [1] is Caco-2. Briefly: Sulforhodamine B antiproliferative assay, 72 h. Conditions: Homo sapiens, Caco-2; normal (21% of oxygen), 72-hour exposition. Format: cell-based, human. In general terms: In SRB staining, fixed cells bind dye roughly in proportion to their protein.
Protocol: In the experiment, cells were seeded on 96-well plates (Sarstedt, Germany) in appropriate culture medium at a density of 10^5 cells/mL 24 h before adding the tested compounds. Cells were treated with each compound in four concentrations in the range 0.1-100 ug/mL. […] Briefly, cells were fixed with 50 µL/well of 50% (w/v) trichloroacetic acid (Avantor Performance Materials, Gliwice, Poland). After 1 h incubation, plates were washed several times with tap water and 50 µL of 0.4% (w/v) solution of sulforhodamine B (Sigma-Aldrich, Germany) in 1% (v/v) acetic acid (Avantor Performance Materials, Gliwice, Poland) was added to each well. After 30 min incubation at room temperature, unbound dye was washed out with 1% (v/v) acetic acid, whereas bound dye was solubilized with 10 mM unbuffered TRIS (Avantor Performance Materials, Gliwice, Poland) solution. […] After additional 30 min, absorbance was read using a Biotek Hybrid H4 reader (BioTek Instruments, USA) at 540 nm wavelength.
Compounds at each concentration were tested in triplicate in a single experiment and each experiment was repeated at least three times independently.
In the next data set the target is T1, PDI A1 (Homo sapiens, UniProt P07237).
T1 construct: purchased Mybiosource; host or cells: E. coli
Briefly: Insulin turbidometric assay, inhibition of PDI A1. Format: biochemical. To be noted: insulin reduction, turbidity at 650 nm, 60 min incubation at 37° C.; read-out: Inhibition of PDI A1 (EC 50). A digest of the protocol:
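E. coli-expressed recombinant PDIA1 (10 ug/ml) preincubated with compound 60 min at 37 °C in phosphate buffer pH 7.6, 1 mM EDTA, DTT. Reaction started with insulin (0.15 mM final) and DTT (0.174 mM final). Insulin-reduction turbidity recorded at 650 nm over 120 s against PDI-free reference.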

Data set [2] has as its system Caco-2. The data set can be described thus: Cell cycle and cell death analysis. In kind it is cell-based. To be noted: FIG. 1C. How it is done: Cell cycle and cell death analysis has been performed as previously described (Milczarek M et al. , 2015). Compounds were tested 5 times independently. Obtained results were analyzed using BD FACSDiva 6.2 software.

Values after ≈ are worked out from the molar mass of the structure shown.

In general, IC50 refers to the concentration needed to halve the response being measured. High values mean weaker potency, low ones greater potency.

T1 sequence (P07237 18-508, species assumed): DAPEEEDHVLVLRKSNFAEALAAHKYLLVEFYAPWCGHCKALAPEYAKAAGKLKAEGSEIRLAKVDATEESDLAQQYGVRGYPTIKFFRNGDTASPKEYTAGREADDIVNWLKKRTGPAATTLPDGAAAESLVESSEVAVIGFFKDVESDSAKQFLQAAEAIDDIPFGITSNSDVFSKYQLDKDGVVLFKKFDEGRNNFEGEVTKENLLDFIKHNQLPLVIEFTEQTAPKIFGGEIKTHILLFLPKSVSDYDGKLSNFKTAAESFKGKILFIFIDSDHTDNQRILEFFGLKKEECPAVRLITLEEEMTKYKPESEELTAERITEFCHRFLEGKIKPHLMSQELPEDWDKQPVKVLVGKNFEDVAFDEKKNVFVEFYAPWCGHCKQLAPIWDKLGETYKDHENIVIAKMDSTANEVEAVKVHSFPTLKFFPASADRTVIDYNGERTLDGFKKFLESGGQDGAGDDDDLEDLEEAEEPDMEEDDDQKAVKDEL

In the data set with Caco-2 [1], `COC(=O)C1CN1S(=O)(=O)c1ccccc1` (stereo not drawn) [Compound C-3251, Methyl 1-(benzenesulfonyl)aziridine-2-carboxylate] showed an IC50 of 3.4 ± 0.2 µg/mL (≈ 14.1 µM). The EC50 at PDI A1 came to 6 µM. For the same molecule, in the data set on Caco-2 [2], the “Cell cycle distribution, CaCo-2” value is reported as “increased the percentage of CaCo-2 cells in S cell cycle phase”.

The record behind these values is patent publication US20230039836A1, “AROMATIC SULPHONAMIDES DERIVATIVES THAT INHIBITS PDI A3, THEIR SYNTHESIS AND USE” (Uniwersytet Jagiellonski, priority 2020, published 2023).
